From publication PMC7985170, “Marine Peptide-N6NH2 and Its Derivative-GUON6NH2 Have Potent Antimicrobial Activity Against Intracellular Edwardsiella tarda in vitro and in vivo” (Frontiers in Microbiology, 2021)

Assays:
E. tarda [1] = test: Time-killing curve; format: cell-based, Edwardsiella tarda; conditions: 2× MIC
Description: Time-killing curve of peptides was performed according to the previous method ([Flamm et al., 2019]). E. tarda was cultured to logarithmic phase, diluted in Mueller Hinton broth (MHB) (1 × 10^5 CFU/mL) containing 1×, 2×, or 4× MIC of peptides, and cultured at 28°C (200 rpm). PBS was added as a control. Bacterial samples (100 μL) were removed at different time intervals (0, 0.5, 1, 1.5, 2, 4, 6, 8, 10, 12, 22, and 24 h) and were counted on MH solid plates. The time-killing curves of peptides were plotted. Bacterial cells treated with 2× MIC norfloxacin and without treatment were used as the positive and blank controls, respectively.

E. tarda [2] = test: Post-antibiotic effect (PAE); format: cell-based, Edwardsiella tarda; conditions: 2 h exposure, E. tarda, 28°C, n = 3
Description: E. tarda cells were incubated with peptides (1×, 2×, or 4× MIC) for 2 h, diluted, and cultured at 28°C and 200 rpm. An aliquot of samples (50 μL) were taken for CFU counts at different time intervals until bacterial cultures became turbid. Bacteria treated with the N6NH2, GUON6NH2 or vancomycin were used as the positive control; bacteria without treatment were used as the blank control. The PAE was calculated using the following formula: PAE = T–C, where T is the time for the CFU counts to increase by 10-fold above the count observed immediately after drug removal, and C is the corresponding time for the untreated control ([Oh et al., 2019]).

LPS = LPS binding, BODIPY-TR-cadaverine (BC) probe displacement; conditions: 0.5 μM LPS, 5 μM BC, Tris buffer pH 7.4; peptides 0.049 to 50 μM
Description: The BODIPY’-TR-cadaverine (BC) probe was used to determine the ability of peptides to bind to LPS ([Wang et al., 2020]). 0.5 μM LPS was incubated with 5 μM BC in […] Tris buffer (pH 7.4) for 4 h at 37°C. Subsequently, the peptides were added into the mixture and the final concentrations of peptides ranged from 0.049 to 50 μM. Ampicillin was used as the negative control. Changes in fluorescence were measured by a fluorescence spectrophotometry at room temperature (excitation/emission, 580/620 nm).

E. tarda [3] = test: SEM and TEM morphology; format: cell-based, Edwardsiella tarda; conditions: 4× MIC, 2 h
Description: To further characterize the bactericidal effects of the peptides, scanning electron microscopy (SEM) and transmission electron microscopy (TEM) were used to visualize morphological changes ([Yang et al., 2019]). E. tarda was cultured to logarithmic growth stage (10^8 CFU/mL) and diluted with 0.01 M PBS (pH 7.4) to OD600 nm = 1. E. tarda cells were treated with 4× MIC peptides at 37°C for 2 h and the untreated cells were used as the control. Briefly, after centrifugation, the bacterial cells were washed three times with 0.1 M PBS (pH 7.2) and fixed overnight at 4°C with 2.5% glutaraldehyde. After washing again, the cells were fixed with 1% osmium tetroxide (OsO4) for 2 h and dehydrated in a graded ethanol series (50%–70%–85%–95% × 2–100%, × 2) for 15 min, respectively. The samples were then dried by CO2, sputtered with gold-palladium, and observed on a QUANTA200 SEM (FEI, Philips, Netherlands).
E. tarda cells were treated peptides before fixation as described above. The bacteria were washed with 0.01 M PBS (pH 7.4) for five times, 7 min each time, and fixed with 1% osmium acid buffer (4°C) for 1 h. After dehydration with a graded acetone series (30%–50%–70%–85%–95%–100% × 3), the cells were immersed in mixtures of acetone and resin (3:1, 1:1 and 1:3, respectively) for 40 min and in a pure epoxy resin overnight. The samples were then embedded in embedding medium and polymerized at 45°C for 3 h and at 65°C for 24 h, respectively. The sections were prepared using an ultramicrotome, stained with 1% uranyl acetate, and visualized by a JEM1400 (JEDL, Tokyo, Japan).

E. tarda [4] = test: Mouse peritonitis model, survival; format: in vivo; conditions: 1 μmoL/kg i.p. at 1 h postinfection, ICR mice, 5 days
Description: To establish a peritonitis mouse model, six-week-old female ICR mice (five mice/group) were intraperitoneally injected with E. tarda (1 × 10^9 CFU/mL, 0.5 mL). The infected mice were followed by the intraperitoneal injection of N6NH2, GUON6NH2 or norfloxacin (1 μmol/kg of body weight, 0.2 mL) at 1 h postinfection, respectively. Mice injected with only bacteria or PBS were used as negative or blank controls. The survival of mice was recorded daily for 5 days.

E. tarda [5] = test: Mouse peritonitis model, bacterial counts in peritoneal fluid; format: in vivo; conditions: 1 μmol/kg i.p.
Description: The mice were intraperitoneally infected with E. tarda (1 × 10^9 CFU/mL, 0.5 mL) and then injected with N6NH2 and GUON6NH2 (1 μmol/kg) or PBS (the blank control) in the same way at 1 h after infection. The mice were then killed at 24 h after treatment, and peritoneal fluids were obtained by washing with 5 mL of ice-cold PBS. The total number of E. tarda in the fluids was determined before any further procedures. For intracellular bacteria quantification, the other fraction was centrifuged for 5 min at 4°C (1,000 rpm). The cells were collected, treated with 1,000 μg/mL gentamicin for 30 min at 37°C to kill extracellular bacteria, and washed with ice-cold PBS twice to remove extracellular gentamicin. Subsequently, the cells were lysed and the bacteria were counted as described above for the in vitro experiment ([Kim et al., 2011]).

CCn1cc(C(=O)O)c(=O)c2cc(F)c(N3CCNCC3)cc21 [norfloxacin, reference compound]
time of bacterial re-growth (E. tarda [1]): 12 h
PAE (E. tarda [2]; 1× MIC): 2.65 h
PAE (E. tarda [2]; 2× MIC): 3.48 h
PAE (E. tarda [2]; 4× MIC): 3.12 h
ability to bind to LPS (BC probe displacement) (LPS): did not replace BC probe to bind to LPS
morphological changes by SEM (E. tarda [3]): no significant change in the bacterial cell structures
ultrastructure changes by TEM (E. tarda [3]): no significant change in bacterial cells
survival rate of mice (E. tarda [4]): 40%
decrease of total numbers of bacteria (E. tarda [5]; peritoneal fluid 24 h after treatment): 0.49 Log10 CFU
reduction of intracellular bacteria (E. tarda [5]; peritoneal fluid cells 24 h after treatment): 0.35 Log10 CFU
